Entries after “also recorded” stand apart in the source; their conditions may differ.
Assays:
[1] = tested on: latent DHIV-GFP, X4 virus in nonpolarized T helper cells; test: Primary T-cell model of latency, ex vivo differentiated nonpolarized CD4+ T cells; assay type: cell-based, HIV-1; settings: 96 h after compound addition; minor effect only at highest doses
[2] = tested on: latent LTR-Tat-IRES-GFP construct in J-Lat A2 cells; test: J-Lat A2 cells (LTR-Tat-IRES-GFP), flow cytometry of GFP; assay type: cell-based, HIV-1; settings: 18 h
Experimental: (§1) HEK293T and Jurkat cells were obtained from the American Type Culture Collection. J-Lat (clones A2 and A72) cell lines were described. HEK293T cells were cultured in DMEM supplemented with 10% FBS, 1% L-glutamine and 1% penicillin-streptomycin (Life Technologies). Jurkat and J-Lat cells were cultured in RPMI supplemented with 10% FBS, 1% L-glutamine, and 1% penicillin-streptomycin. TNFα (Sigma-Aldrich) was used at concentrations of 0.25 or 1 ng/ml. Human αCD3 and αCD28 (BD Biosciences) were used at concentrations of 3 and 1 μg/ml, respectively. Prostratin (Sigma) was used at a suboptimal concentration of 0.5 μM, and SAHA (NCI Chemical Carcinogen Repository, Midwest Research Institute) was used at 2.5 μM.
(§2) To determine if BET inhibition specifically activates Tat-dependent transcription, a J-Lat cell line was utilized that harbored a latent lentiviral construct expressing Tat with GFP from the HIV LTR (clone A2; LTR-Tat-IRES-GFP). […] Stimulation with JQ1 yielded up to ninefold more GFP-expressing cells than control-treated cells, and a 22-fold increase was observed when cells were co-treated with JQ1 and low doses of TNFα (FIG. 21A). […] Here, an up to 22-fold increase in GFP^+ cells resulted from JQ1 treatment alone and a 45-fold increase when TNFα was added with JQ1 (FIG. 21B). Both cell lines were also treated with prostratin and SAHA (FIG. 27).
(§3) Two latent J-Lat cell lines A2 (containing a LTR-Tat-IRES-GFP construct) or A72 (containing a LTR-GFP construct) were treated with JQ1 or (R)-JQ1 in combination with TNFα or control at the indicated concentrations for 18 h, followed by flow cytometry analysis. […] Data represent average (±SD) of three independent experiments. All treatments in (A) and (B) on the X axis are in μM.

[3] = tested on: latent LTR-GFP construct in J-Lat A72 cells; test: J-Lat A72 cells (LTR-GFP lacking Tat), flow cytometry of GFP; assay type: cell-based, HIV-1; settings: 18 h
Experimental: as §1, §2, §3

[4] = tested on: latent HIV (clone R7/E-/GFP) in Jurkat T cells; test: Reactivation of latent HIV in polyclonal Jurkat T cells (clone R7/E-/GFP), flow cytometry of GFP; assay type: cell-based, HIV-1; settings: compound alone, increasing amounts
Experimental: A polyclonal population of Jurkat T cells containing latent HIV (clone R7/E-/GFP) was treated with increasing amounts of JQ1. This viral clone contains a frameshift mutation in the viral Env gene to prevent viral spread and expresses GFP in the Nef open reading frame, which allows separation of actively infected GFP^+ from GFP^− cells by cell sorting. GFP^− cells, which are mostly uninfected but contain a small fraction of latently infected cells with silenced HIV transcription, were treated with JQ1. Activation of transcription was measured by flow cytometry of GFP. […] Stimulation of cells with JQ1 produced up to fivefold more GFP-expressing cells than control-treated cells.
HIV clones R7/E-/GFP and NL4-3/E-/GFP-IRES-nef were derived from pR7-GFP and pNLENG1-EGFP by mutating the Env gene by inserting an early stop codon in the NdeI site. […]. Jurkat cells were spininfected with 25 ng of p24 per 10^6 cells, and GFP^− cells where collected in two rounds of cell sorting 5 and 15 days after infection. The expanded population of GFP^− cells, composed of uninfected and latently infected cells, was seeded in 96-well plates and treated with the indicated concentration of drugs in duplicates. The percentage of GFP^+ cells was detected after 24 h at the MACSQuant VYB FACS analyzer. Data are expressed as the mean percentage of GFP^+ cells, subtracting the average percentage of spontaneous GFP-reactivation in the untreated samples. (A) Jurkat cells containing latent R7/E-/GFP virus were treated with JQ1 or (R)-JQ1 in combination with Prostratin (0.5 μM), SAHA (2.5 μM), TNFα (1 ng/μl), or control at the indicated concentrations for 18 h, followed by flow cytometry analysis. […] Results represent average of two independent experiments. All treatments in (A) and (B) on the X axis are in μM.

[5] = tested on: latent HIV-1 in Bcl-2-transduced resting CD4+ T cells; assay type: cell-based; settings: 24-72 h, average of two donors
[6] = tested on: HIV LTR-luciferase reporter (Tat transactivation); test: Tat transactivation of the HIV promoter, LTR-luciferase in Jurkat 1G5-Tat cells; assay type: cell-based; settings: 1G5-Tat clonal cell lines
Experimental: Compounds that specifically bind to the bromodomain of PCAF in vitro were tested in an in vivo assay that measures the transactivation of the HIV promoter by Tat. The Jurkat 1G5 cells contain a stably integrated and silent HIV LTR-luciferase reporter construct. These cells were infected with an HIV-based retroviral vector expressing a 101-amino acids Tat (Tat2ex), generating the 1G5-Tat cells. Introduction of Tat protein activates HIV transcription and produces a stable increase in luciferase activity. Clonal cell lines were derived from the original population and have characterized them in terms of luciferase expression and response to Tat inhibitors. Luciferase expression is stable over time in each clone and is inhibited by more than 80% in response to DRB, a known inhibitor of CDK9 kinase activity and Tat transactivation.
Compounds were tested by incubating them at various concentrations ranging from 1.25 to 40 μM on either 1G5 cells, to test for effects on the HIV LTR, or on 1G5-Tat cells to test for effects on Tat-induced HIV transcription. After 24 hr, cells were harvested and processed for luciferase activity measurement.

Row | SMILES | reversal of latency (GFP) [1] | activation of HIV transcription (GFP) [2] | activation of HIV transcription (GFP) [3] | reactivation of HIV-1 (GFP+ cells) [4] | reactivation of latent HIV-1 relative to costimulation with αCD3 and αCD28 antibodies [5] | activation of HIV transcription (GFP) ([2]; listed as I-BET151) | activation of HIV transcription (GFP) ([3]; listed as I-BET151) | inhibition of luciferase expression [6]
1 | O=C(CCCCCCC(=O)Nc1ccccc1)NO [SAHA, suberoylanilidehydroxamic acid] | resistant to reactivation | – | – | – | – | – | – | –
2 | Cc1sc2c(c1C)C(c1ccc(Cl)cc1)=N[C@H](CC(=O)OC(C)(C)C)c1nnc(C)n1-2 [(R)-JQ1] | – | inactive and not and did not activate the integrated HIV promoter | did not activate the integrated HIV promoter | not | – | – | – | –
3 | COc1cc2c(cc1-c1c(C)noc1C)ncc1[nH]c(=O)n([C@H](C)c3ccccn3)c12 [I-Bet151, 7-(3,5-dimethylisoxazol-4-yl)-8-methoxy-1-((R)-1-(pyridin-2-yl)ethyl)-1H-imidazo[4,5-c]quinolin-2(3H)-one] | – | effectively activated HIV from latency | effectively activated HIV from latency | – | same activation | increased GFP expression | increased GFP expression | –
4 | COC(=O)C[C@@H]1N=C(c2ccc(Cl)cc2)c2c(sc(C)c2C)-n2c(C)nnc21 [MS417, Methyl 2-((6S)-4-(4-chlorophenyl)-2,3,9-trimethyl-6H-thieno[3,2-f][1,2,4]triazolo[4,3-a][1,4]diazepin-6-yl)acetate] | minor activatory effect | effectively activated HIV from latency; also recorded: increased GFP expression | effectively activated HIV from latency; also recorded: increased GFP expression | – | same activation | – | – | –
5 | OC[C@H]1O[C@@H](n2cnc3cc(Cl)c(Cl)cc32)[C@H](O)[C@@H]1O [DRB] | – | – | – | – | – | – | – | more than 80%

— patent publication US20150133434A1, “Compositions and Methods for Reactivating Latent Immunodeficiency Virus” (priority 2012, published 2015)
